Measurements: ChEMBL document CHEMBL4138105, “LL-37-derived short antimicrobial peptide KR-12-a5 and its d-amino acid substituted analogs with cell selectivity, anti-biofilm activity, synergistic effect with conventional antibiotics, and anti-inflammatory activity” (Eur J Med Chem, 2017)
Values after ≈ are worked out from the molar mass of the structure shown. Active and inactive are the calls of the source. No cut-off for these calls is given here.

How the values were obtained:
Staphylococcus aureus [1] = assay: Antibacterial activity against methicillin resistant Staphylococcus aureus CCARM 3090 after 24 hrs; type: functional; details: CCARM 3090, 24 h
Escherichia coli [2] = assay: Antibacterial activity against Escherichia coli KCTC 1682 in presence of 1 mM MgCl2 after 24 hrs; type: functional; details: KCTC 1682, 24 h
Staphylococcus aureus [3] = assay: Antibacterial activity against Staphylococcus aureus KCTC 1621 in presence of 6 uM NH4Cl after 24 hrs; type: functional; details: KCTC 1621, 24 h
Pseudomonas aeruginosa [4] = assay: Potency index, ratio of LL-37 MBIC90 to compound MBIC90 for antibiofilm activity against multidrug-resistant Pseudomonas aeruginosa CCARM 2095; type: functional
[5] = tested on: Staphylococcus epidermidis; assay: Antibacterial activity against Staphylococcus epidermidis KCTC 1917 after 24 hrs; type: functional; details: KCTC 1917, 24 h
RAW264.7 [6] = assay: Anti-inflammatory activity in mouse RAW264.7 cells assessed as reduction in LPS-induced nitric oxide production at 10 to 20 uM after 24 hrs by Griess assay; type: functional, cell-based
Enterococcus faecium [7] = assay: Antibacterial activity against Vancomycin-resistant Enterococcus faecium ATCC 51559 after 24 hrs; type: functional; details: ATCC 51559, 24 h
Pseudomonas aeruginosa [8] = assay: Synergistic antibacterial activity against multidrug-resistant Pseudomonas aeruginosa CCARM 2095 after 72 hrs in presence of chloramphenicol by chequerboard assay; type: functional
Escherichia coli [9] = assay: Antibacterial activity against Escherichia coli KCTC 1682 in presence of 150 mM NaCl after 24 hrs; type: functional; details: KCTC 1682, 24 h
RAW264.7 [10] = assay: Anti-inflammatory activity in mouse RAW264.7 cells assessed as reduction in LPS-induced TNF-alpha production at 10 to 20 uM preincubated for 1 hr followed by LPS stimulation measured after 6 hrs by ELISA; type: functional, cell-based
Pseudomonas aeruginosa [11] = assay: Antibacterial activity against multidrug-resistant Pseudomonas aeruginosa CCARM 2095 after 24 hrs; type: functional; details: CCARM 2095, 24 h
Pseudomonas aeruginosa [12] = assay: Potency index, ratio of melittin MIC to compound MIC for multidrug-resistant Pseudomonas aeruginosa CCARM 2109; type: functional
Staphylococcus aureus [13] = assay: Potency index, ratio of melittin MIC to compound MIC for methicillin resistant Staphylococcus aureus CCARM 3089; type: functional
Staphylococcus aureus [14] = assay: Potency index, ratio of LL-37 MIC to compound MIC for methicillin resistant Staphylococcus aureus CCARM 3095; type: functional
Staphylococcus aureus [15] = assay: Ratio of MIC for Staphylococcus aureus KCTC 1621 in presence of 20% human serum to MIC for Escherichia coli KCTC 1682 in presence of 20% human serum; type: functional
Pseudomonas aeruginosa [16] = assay: Synergistic antibacterial activity against multidrug-resistant Pseudomonas aeruginosa CCARM 2095 after 72 hrs in presence of ciprofloxacin by chequerboard assay; type: functional
Staphylococcus aureus [17] = assay: Antibacterial activity against methicillin resistant Staphylococcus aureus CCARM 3095 after 24 hrs; type: functional; details: CCARM 3095, 24 h
RAW264.7 [18] = assay: Anti-inflammatory activity in mouse RAW264.7 cells assessed as reduction in LPS-induced TNF-alpha mRNA expression at 10 uM after 3 hrs by RT-PCR analysis; type: functional, cell-based
Staphylococcus aureus [19] = assay: Antibacterial activity against Staphylococcus aureus KCTC 1621 in presence of 1 mM MgCl2 after 24 hrs; type: functional; details: KCTC 1621, 24 h
Pseudomonas aeruginosa [20] = assay: Antibacterial activity against Pseudomonas aeruginosa KCTC 1637 after 24 hrs; type: functional; details: KCTC 1637, 24 h
Escherichia coli [21] = assay: Antibacterial activity against Escherichia coli KCTC 1682 in presence of 6 uM NH4Cl after 24 hrs; type: functional; details: KCTC 1682, 24 h
Staphylococcus aureus [22] = assay: Potency index, ratio of LL-37 MIC to compound MIC for methicillin resistant Staphylococcus aureus CCARM 3090; type: functional
Staphylococcus aureus [23] = assay: Antibacterial activity against Staphylococcus aureus KCTC 1621 after 24 hrs; type: functional; details: KCTC 1621, 24 h
Pseudomonas aeruginosa [24] = assay: Potency index, ratio of LL-37 MIC to compound MIC for multidrug-resistant Pseudomonas aeruginosa CCARM 2109; type: functional
Escherichia coli [25] = assay: Antibacterial activity against Escherichia coli KCTC 1682 after 24 hrs; type: functional; details: KCTC 1682, 24 h
Enterococcus faecium [26] = assay: Potency index, ratio of LL-37 MIC to compound MIC for Vancomycin-resistant Enterococcus faecium ATCC 51559; type: functional
Staphylococcus aureus [27] = assay: Potency index, ratio of melittin MIC to compound MIC for methicillin resistant Staphylococcus aureus CCARM 3095; type: functional
Escherichia coli [28] = assay: Antibacterial activity against Escherichia coli KCTC 1682 in presence of 4.5 mM KCl after 24 hrs; type: functional; details: KCTC 1682, 24 h
Staphylococcus aureus [29] = assay: Potency index, ratio of melittin MIC to compound MIC for methicillin resistant Staphylococcus aureus CCARM 3090; type: functional
Escherichia coli [30] = assay: Antibacterial activity against Escherichia coli KCTC 1682 in presence of 2.5 mM CaCl2 after 24 hrs; type: functional; details: KCTC 1682, 24 h
Pseudomonas aeruginosa [31] = assay: Antibiofilm activity against multidrug-resistant Pseudomonas aeruginosa CCARM 2095 after 24 hrs by crystal violet staining based assay; type: functional
RAW264.7 [32] = assay: Anti-inflammatory activity in mouse RAW264.7 cells assessed as reduction in LPS-induced IL-6 mRNA expression at 10 uM after 3 hrs by RT-PCR analysis; type: functional, cell-based
Staphylococcus aureus [33] = assay: Antibacterial activity against Staphylococcus aureus KCTC 1621 in presence of 20% human serum after 24 hrs; type: functional; details: KCTC 1621, 24 h
[34] = Therapeutic index, ratio of MHC10 for human RBC to MIC for Escherichia coli KCTC 1682; type: toxicity; details: red blood cells (RBC), pooled result: one value given for 6 cell lines, strains, targets or settings, read-out: TI
NIH3T3 = assay: Cytotoxicity against mouse NIH/3T3 cells up to 128 uM after 48 hrs by MTT assay; type: cell-based; details: nih3t3, 48 h
Lipid bilayer = assay: Binding affinity to EYPE/EYPG small unilamellar vesicles assessed as intrinsic tryptophan acrylamide quenching constant by fluorescence assay (reference value: 5.95 to 7.56 /M)
Erythrocyte = assay: Hemolytic activity in human RBC after 1 hr; type: ADME, cell-based
Salmonella typhimurium = assay: Antibacterial activity against Salmonella typhimurium KCTC 11926 after 24 hrs; type: functional, Salmonella enterica subsp. enterica serovar Typhimurium; details: Salmonella enterica, KCTC 11926, 24 h
Bacillus subtilis = assay: Antibacterial activity against Bacillus subtilis KCTC 3068 after 24 hrs; type: functional; details: KCTC 3068, 24 h
Pseudomonas aeruginosa [35] = assay: Potency index, ratio of melittin MIC to compound MIC for multidrug-resistant Pseudomonas aeruginosa CCARM 2095; type: functional
Enterococcus faecium [36] = assay: Potency index, ratio of melittin MIC to compound MIC for Vancomycin-resistant Enterococcus faecium ATCC 51559; type: functional
RAW264.7 [37] = assay: Anti-inflammatory activity in mouse RAW264.7 cells assessed as reduction in LPS-induced MCP-1 mRNA expression at 10 uM after 3 hrs by RT-PCR analysis; type: functional, cell-based
Staphylococcus aureus [38] = assay: Antibacterial activity against Staphylococcus aureus KCTC 1621 assessed as cytoplasmic membrane depolarization at 2 times MIC by disC3-5 dye based fluorescence assay; type: functional, organism-based
Pseudomonas aeruginosa [39] = assay: Potency index, ratio of LL-37 MIC to compound MIC for multidrug-resistant Pseudomonas aeruginosa CCARM 2095; type: functional
Pseudomonas aeruginosa [40] = assay: Synergistic antibacterial activity against multidrug-resistant Pseudomonas aeruginosa CCARM 2095 after 72 hrs in presence of oxacillin by chequerboard assay; type: functional

## CC[C@H](C)[C@H](NC(=O)[C@H](CC(C)C)NC(=O)[C@@H](CCCCN)NC(=O)[C@@H](NC(=O)[C@@H](NC(=O)[C@H](CCCNC(=N)N)NC(=O)[C@@H](N)CCCCN)[C@@H](C)CC)C(C)C)C(=O)N[C@@H](CC(C)C)C(=O)N[C@@H](CCCCN)C(=O)N[C@@H](Cc1c[nH]c2ccccc12)C(=O)N[C@@H](CC(C)C)C(=O)N[C@@H](CCCNC(=N)N)C(N)=O
Staphylococcus aureus [1]
  MIC: 4 µM (≈ 6.26 µg/mL)
Escherichia coli [2]
  MIC: 8 µM
Staphylococcus aureus [3]
  MIC: 2 µM
Pseudomonas aeruginosa [4]
  fold change (FC): 4 - 8
[5]
  MIC: 4 µM (≈ 6.26 µg/mL)
RAW264.7 [6]
  Activity: Active
Enterococcus faecium [7]
  MIC: 4 µM (≈ 6.26 µg/mL)
Pseudomonas aeruginosa [8]
  fractional inhibitory concentration index (FICI): 0.375
Escherichia coli [9]
  MIC: 4 µM
RAW264.7 [10]
  Activity: Active
Pseudomonas aeruginosa [11]
  MIC: 8 µM (≈ 12.5 µg/mL)
Pseudomonas aeruginosa [12]
  Ratio: 2 - 4
Staphylococcus aureus [13]
  Ratio: 2 - 4
Staphylococcus aureus [14]
  Ratio: 2 - 4
Staphylococcus aureus [15]
  Ratio: 2 - 8
Pseudomonas aeruginosa [16]
  fractional inhibitory concentration index (FICI): 0.5
Staphylococcus aureus [17]
  MIC: 4 µM (≈ 6.26 µg/mL)
RAW264.7 [18]
  Activity: Active
Staphylococcus aureus [19]
  MIC: 8 µM
Pseudomonas aeruginosa [20]
  MIC: 8 µM (≈ 12.5 µg/mL)
Escherichia coli [21]
  MIC: 4 µM
Staphylococcus aureus [22]
  Ratio: 2 - 4
Staphylococcus aureus [23]
  MIC: 2 µM (≈ 3.13 µg/mL)
Pseudomonas aeruginosa [24]
  Ratio: 2 - 4
Escherichia coli [25]
  MIC: 4 µM (≈ 6.26 µg/mL)
Enterococcus faecium [26]
  Ratio: 2 - 4
Staphylococcus aureus [27]
  Ratio: 2 - 4
Escherichia coli [28]
  MIC: 4 µM
Staphylococcus aureus [29]
  Ratio: 2 - 4
Escherichia coli [30]
  MIC: 8 µM
Pseudomonas aeruginosa [31]
  MBIC90: 8 µM
RAW264.7 [32]
  Activity: Active
Staphylococcus aureus [33]
  MIC: 16 µM
[34]
  selectivity ratio: 16.8
NIH3T3
  Activity: Non-Toxic
Lipid bilayer
  KSV: 1.02 M⁻¹
Erythrocyte
  MHC10: 79 µM
Salmonella typhimurium
  MIC: 2 µM (≈ 3.13 µg/mL)
Bacillus subtilis
  MIC: 8 µM (≈ 12.5 µg/mL)
Pseudomonas aeruginosa [35]
  Ratio: 2 - 4
Enterococcus faecium [36]
  Ratio: 2 - 4
RAW264.7 [37]
  Activity: Active
Staphylococcus aureus [38]
  Activity: Active
Pseudomonas aeruginosa [39]
  Ratio: 2 - 4
Pseudomonas aeruginosa [40]
  fractional inhibitory concentration index (FICI): 0.375
